Measurements from paper PMC4604170 (PLoS ONE, 2015).

What was measured:
[1] = Corneal and aqueous humour vancomycin quantification by LC-MS; format: in vivo, New Zealand White rabbits; details: for Vancomycin in the aqueous humour: rabbit; for Vancomycin in the aqueous humour / Corneal vancomycin concentration / Aqueous humour vancomycin concentration: LC-MS; for Corneal vancomycin concentration / Aqueous humour vancomycin concentration: after 4 days of vancomycin 1.4% drops 5 times/day; for Period of drop instillation required to achieve MIC in the cornea: vancomycin 1.4% drops five times a day
Experimental: Prior to starting the antibiotic regimen, the cornea of the right eye had complete epithelial debridement following application of 20% alcohol for 60 seconds, whereas the epithelium of the left cornea was not debrided.
Aqueous humour samples (120–150 μL) were extracted with three equivalents of methanol (Merck, Darmstadt, Germany). The samples were shaken for 5 min at 1200 rpm (20°C) and centrifuged for 10 min at 16,000 g (4°C). The supernatants were transferred to fresh tubes and dried in a vacuum concentrator. Cornea samples were cut and ground with a pestle while frozen. They were next homogenized on ice with 300 μL of 3:1 methanol/water with 0.1% formic acid (Sigma Aldrich, St. Louis, MO, USA) for 1 min. The homogenates were then spun down briefly on a capsule centrifuge and supernatants transferred to fresh tubes. The residues were homogenized and spun down a second time. The extracts were combined and centrifuged for 10 min at 16,000 g (4°C). The supernatants were transferred to fresh tubes and dried in a vacuum concentrator. Samples were reconstituted in water (Ultrapure water, Millipore purification unit) and centrifuged for 5 min at 16,000 g (10°C) before transferring to autosampler vials for LC-MS/MS analysis.
Chromatographic separation was performed on a Waters 2695 Separations Module (Milford, MA, USA) with a Thermo Scientific Hypersil Gold C18 column (Whaltham, MA, USA) (2.1 × 50 mm, 3 μm). The mobile phase was A: 0.1% formic acid in water and B: 0.1% formic acid in acetonitrile. The gradient profile was 2% B at 0 min, 25% B at 6 min, 90% B from 6.5 to 8.5 min and 2% B from 9 to 13 min. The flow rate was 0.3 ml/min. The autosampler and column heater temperatures were maintained at 10 and 30°C, respectively. Detection was performed by an AB Sciex API 2000 triple quadrupole mass spectrometer (Concord, Canada) with an electrospray ionization source operating in the positive ionization mode. The ion source voltage was set to 5 kV.

[2] = tested on: Staphylococcus aureus ATCC29213; experiment: Effectiveness of prophylaxis once the corneal MIC was achieved (inoculation after 16 days of drops); format: in vivo, New Zealand White rabbits; details: inoculation after 16 days of vancomycin 1.4% drops 5 times/day; 3 rabbits with titanium film implant
Experimental: Following bacterial inoculation, development of infection was assessed clinically with SLP and AS-OCT imaging.

[3] = no data for the cornea; cited from earlier work
Source text: It may therefore bind to lectin-like proteins of the stromal extracellular matrix, reducing its bioavailability fur ...

## CN[C@H](CC(C)C)C(=O)N[C@H]1C(=O)N[C@@H](CC(N)=O)C(=O)N[C@H]2C(=O)N[C@H]3C(=O)N[C@H](C(=O)N[C@H](C(=O)O)c4cc(O)cc(O)c4-c4cc3ccc4O)[C@H](O)c3ccc(c(Cl)c3)Oc3cc2cc(c3O[C@@H]2O[C@H](CO)[C@@H](O)[C@H](O)[C@H]2O[C@H]2C[C@](C)(N)[C@H](O)[C@H](C)O2)Oc2ccc(cc2Cl)[C@H]1O [vancomycin]
[1]; after 2 days of vancomycin 1.4% drops 5 times/day
  Vancomycin in the aqueous humour: not detected
[1]; with epithelial removal (right eye, 20% alcohol 60 seconds), 3 rabbits, p = 0.115
  Corneal vancomycin concentration: 2.57 ± 0.40 µg/mL
[1]; with epithelial removal, p = 0.063
  Aqueous humour vancomycin concentration: 0.43 ± 0.15 µg/mL
[1]; without epithelial removal (left eye), 3 rabbits without implant
  Corneal vancomycin concentration: 1.36 ± 0.45 µg/mL
[1]; without epithelial removal
  Aqueous humour vancomycin concentration: 0.04 ± 0.005 µg/mL
[1]; day 10 of vancomycin 1.4% drops 5 times/day
  Vancomycin in the aqueous humour: below the level of quantification
[1]; day 16 of vancomycin 1.4% drops 5 times/day
  Vancomycin in the aqueous humour: below the level of quantification
[1]; 100% compliance, epithelium not debrided
  Period of drop instillation required to achieve MIC in the cornea: 16 days
[1]; epithelium debrided
  Period of drop instillation required to achieve MIC in the cornea: ≤ 4 days
[2]
  Rabbits showing evidence of corneal infection by day 2 post-inoculation: 2 of the 3
[3]
  Binding to proteins: moderate
